Measured values from patent US20160120888A1, “ANTICANCER DRUG” (KTN BIOTEC, INC., priority 2013, published 2016).

How the values were obtained:
Type in all cases: cell-based
[1] = tested on: human malignant pleural mesothelioma cell lines NCI-H28, NCI-H2052, NCI-H2452, MSTO-211H; experiment: Cell viability assay (MTT), human malignant pleural mesothelioma cell lines; settings: 48 hr treatment; for cell death induction (MTT intensity relative to cells free of drug treatment): FIG. 2 / FIG. 3
Experimental: FIG. 2 is a graph showing that diDCP-LA-PI and diDCP-LA-PIe induce cell death of human malignant pleural mesothelioma in a concentration-dependent manner. The cells were treated with a given concentration of diDCP-LA-PI or diDCP-LA-PIe for 48 hr, and subjected to MTT assay.
FIG. 3 is a graph showing that DO-PI and DP-PI induce the same level of cell death of human malignant pleural mesothelioma in a concentration-dependent manner. The cells were treated with a given concentration of DO-PI or DP-PI for 48 hr, and subjected to MTT assay.
NCI-H28, NCI-H2052, NCI-H2452, and MSTO-211H which are cell lines of human malignant pleural mesothelioma were used.
These cells were purchased from American Type Culture Collection (Manassas, Va., USA). The cells were cultured in Roswell Park Memorial Institute (RPMI)-1640 medium added with 0.003% (w/v) L-glutamine.
(§1) In all cell cultures, the cells were incubated in a medium added with 10% (v/v) heat-inactivated bovine serum, penicillin (final concentration, 100 U/ml) and streptomycin (final concentration, 0.1 mg/ml) in a humid environment under 5% CO2 and 95% air at 37° C.
(§2) The cell viability was evaluated by an established method using 3-(4,5-dimethyl-2-thiazolyl)-2,5-diphenyl-2H-tetrazolium bromide (MTT).

[2] = tested on: MKN28 human gastric cancer cell line; experiment: Cell viability assay (MTT), MKN28 gastric cancer cells; settings: 48 hr treatment, FIG. 4B
Experimental: (§3) FIG. 4 is a graph showing that diDCP-LA-PI and diDCP-LA-PIe induce cell death of (A) human lung cancer cell (Lu65), (B) gastric cancer cell (MKN28), (C) breast cancer cell (MCF-7) in a concentration-dependent manner. The cells were treated with a given concentration of diDCP-LA-PI or diDCP-LA-PIe for 48 hr, and subjected to MTT assay.
MKN28 human gastric cancer cell line was provided by Dr. Tatematsu (Nagoya University, Japan), and cultured in RPMI-1640 medium.
as §1, §2

[3] = tested on: Lu-65 human lung cancer cell line; experiment: Cell viability assay (MTT), Lu-65 lung cancer cells; settings: human lung cancer cell (Lu65), 48 hr treatment, FIG. 4A
Experimental: as §3
Lu-65 human lung cancer cell line was purchased from Health Science Research Resources Bank (Osaka, Japan), and cultured in RPMI-1640 medium.
as §1, §2

[4] = tested on: MCF-7 human breast cancer cell line; experiment: Cell viability assay (MTT), MCF-7 breast cancer cells; settings: breast cancer cell (MCF-7), 48 hr treatment, FIG. 4C
Experimental: as §3
MCF-7 human breast cancer cell line was obtained from RIKEN cell bank (Ibaraki, Japan) and cultured in Dulbecco's modified Eagle's medium (DMEM).
as §1, §2

Row | Molecule | cell death induction (MTT intensity relative to cells free of drug treatment) [1] | cell death induction (MTT intensity relative to cells free of drug treatment) [2] | cell death induction (MTT intensity relative to cells free of drug treatment) [3] | cell death induction (MTT intensity relative to cells free of drug treatment) [4] | effectiveness of cell death induction compared with diDCP-LA-PI ([1]; human malignant pleural mesothelioma cells, FIG. 2) | effectiveness of cell death induction compared with diDCP-LA-PI [2] | effectiveness of cell death induction compared with diDCP-LA-PI [3] | effectiveness of cell death induction compared with diDCP-LA-PI [4]
1 | CCCCCCCC/C=C\CCCCCCCC(=O)OC[C@H](COP(=O)(O)OC1C(O)C(O)C(O)[C@@H](O)C1O)OC(=O)CCCCCCC/C=C\CCCCCCCC (some centres unmarked) [DO-PI, 1,2-dioleoyl-sn-glycerol-3-phospho-(1′-myo-inositol)] | induce the same level of cell death of human malignant pleural mesothelioma cells in a concentration dependent manner | – | – | – | – | – | – | –
2 | 1,2-O-bis-[8-{2-(2-pentyl-cyclopropylmethyl)-cyclopropyl}-octanoyl]-sn-glycerol-3-phosphatidyl-D-inositol [diDCP-LA-PI] | induce cell death of human malignant pleural mesothelioma cells in a concentration dependent manner | induce cell death of human lung cancer, gastric cancer and breast cancer in a concentration dependent manner | induce cell death of human lung cancer, gastric cancer and breast cancer in a concentration dependent manner | induce cell death of human lung cancer, gastric cancer and breast cancer in a concentration dependent manner | – | – | – | –
3 | 1,2-O-bis-[8-{2-(2-pentyl-cyclopropylmethyl)-cyclopropyl}-octanoyl]-sn-glycerol-3-phosphatidyl-L-1-inositol [diDCP-LA-PIe] | induce cell death of human malignant pleural mesothelioma cells in a concentration dependent manner | induce cell death of human lung cancer, gastric cancer and breast cancer in a concentration dependent manner | induce cell death of human lung cancer, gastric cancer and breast cancer in a concentration dependent manner | induce cell death of human lung cancer, gastric cancer and breast cancer in a concentration dependent manner | more effective | more effective | more effective | more effective
4 | CCCCCCCCCCCCCCCC(=O)OC[C@H](COP(=O)(O)O[C@@H]1[C@H](O)[C@H](O)[C@@H](O)[C@H](O)[C@H]1O)OC(=O)CCCCCCCCCCCCCCC [DP-PI, 1,2-dipalmitoyl-sn-glycerol-3-phospho-(1′-myo-inositol)] | induce the same level of cell death of human malignant pleural mesothelioma cells in a concentration dependent manner | – | – | – | – | – | – | –
